Measured values: ChEMBL document CHEMBL3045074, “Synthesis and anticonvulsant activity of novel quinazolin-4(3H)-one derived pyrazole analogs” (Med Chem Res, 2013)
Calls of active or inactive are those of the source. No cut-off for these calls is given here.

Tests used:
Mus musculus [1] = assay: Neurotoxicity in Swiss albino Mus musculus (mouse) assessed as minimal motor impairment at 300 mg/kg, ip after 4 hr by rotorod test; assay type: toxicity, organism-based; design: dose 300 mg/kg, route intraperitoneal; conditions: in vivo
Rattus norvegicus [2] = assay: Neurotoxicity in Wistar Rattus norvegicus (rat) assessed as minimal motor impairment at 30 mg/kg, po after 0.25 to 4 hr by rotorod test; assay type: toxicity, organism-based; design: dose 30 mg/kg, route oral; conditions: in vivo
Mus musculus [3] = assay: Anticonvulsant activity in Swiss albino Mus musculus (mouse) assessed as protection against maximal electroshock-induced seizures at 300 mg/kg, ip after 4 hr; assay type: functional, organism-based; design: dose 300 mg/kg
Rattus norvegicus [4] = assay: Anticonvulsant activity in Wistar Rattus norvegicus (rat) assessed as protection against maximal electroshock-induced seizures at 30 mg/kg, po after 0.5 hr; assay type: functional
Mus musculus [5] = assay: Anticonvulsant activity in Swiss albino Mus musculus (mouse) assessed as protection against maximal electroshock-induced seizures at 100 mg/kg, ip after 0.5 hr; assay type: functional, organism-based; design: dose 100 mg/kg
Rattus norvegicus [6] = assay: Anticonvulsant activity in Wistar Rattus norvegicus (rat) assessed as protection against maximal electroshock-induced seizures at 30 mg/kg, po after 0.25 hr; assay type: functional
Rattus norvegicus [7] = assay: Anticonvulsant activity in Wistar Rattus norvegicus (rat) assessed as protection against maximal electroshock-induced seizures at 30 mg/kg, po after 2 hr; assay type: functional
Rattus norvegicus [8] = assay: Anticonvulsant activity in Wistar Rattus norvegicus (rat) assessed as protection against maximal electroshock-induced seizures at 30 mg/kg, po after 1 hr; assay type: functional
Rattus norvegicus [9] = assay: Anticonvulsant activity in Wistar Rattus norvegicus (rat) assessed as protection against maximal electroshock-induced seizures at 30 mg/kg, po after 4 hr; assay type: functional
Mus musculus [10] = assay: Anticonvulsant activity in Swiss albino Mus musculus (mouse) assessed as protection against subcutaneous pentylenetetrazole-induced seizure at 300 mg/kg, ip after 4 hr; assay type: functional, organism-based; design: dose 300 mg/kg
Mus musculus [11] = assay: Neurotoxicity in Swiss albino Mus musculus (mouse) assessed as minimal motor impairment at 300 mg/kg, ip after 0.5 hr by rotorod test; assay type: toxicity, organism-based; design: dose 300 mg/kg, route intraperitoneal; conditions: in vivo
Mus musculus [12] = assay: Anticonvulsant activity in Swiss albino Mus musculus (mouse) assessed as protection against subcutaneous pentylenetetrazole-induced seizure at 30 to 300 mg/kg, ip after 0.5 hr; assay type: functional, organism-based
Mus musculus [13] = assay: Anticonvulsant activity in Swiss albino Mus musculus (mouse) assessed as protection against maximal electroshock-induced seizures at 300 mg/kg, ip after 0.5 hr; assay type: functional, organism-based; design: dose 300 mg/kg
Mus musculus [14] = assay: Anticonvulsant activity in Swiss albino Mus musculus (mouse) assessed as protection against subcutaneous pentylenetetrazole-induced seizure at 300 mg/kg, ip after 0.5 hr; assay type: functional, organism-based; design: dose 300 mg/kg
Mus musculus [15] = assay: Anticonvulsant activity in Swiss albino Mus musculus (mouse) assessed as protection against subcutaneous pentylenetetrazole-induced seizure at 100 mg/kg, ip after 0.5 hr; assay type: functional, organism-based; design: dose 100 mg/kg
Mus musculus [16] = assay: Anticonvulsant activity in Swiss albino Mus musculus (mouse) assessed as protection against maximal electroshock-induced seizures at 100 mg/kg, ip after 4 hr; assay type: functional, organism-based; design: dose 100 mg/kg
Mus musculus [17] = assay: Anticonvulsant activity in Swiss albino Mus musculus (mouse) assessed as protection against maximal electroshock-induced seizures at 30 mg/kg, ip after 0.5 hr; assay type: functional, organism-based; design: dose 30 mg/kg
Mus musculus [18] = assay: Neurotoxicity in Swiss albino Mus musculus (mouse) assessed as minimal motor impairment at 100 mg/kg, ip after 0.5 hr by rotorod test; assay type: toxicity, organism-based; design: dose 100 mg/kg, route intraperitoneal; conditions: in vivo
Mus musculus [19] = assay: Neurotoxicity in Swiss albino Mus musculus (mouse) assessed as minimal motor impairment at 100 mg/kg, ip after 4 hr by rotorod test; assay type: toxicity, organism-based; design: dose 100 mg/kg, route intraperitoneal; conditions: in vivo
Mus musculus [20] = assay: Anticonvulsant activity in Swiss albino Mus musculus (mouse) assessed as protection against maximal electroshock-induced seizures at 30 mg/kg, ip after 4 hr; assay type: functional, organism-based; design: dose 30 mg/kg

SMILES | Activity (Mus musculus [1]) | Activity (Rattus norvegicus [2]) | Activity (Mus musculus [3]) | Activity (Rattus norvegicus [4]) | Activity (Mus musculus [5]) | Activity (Rattus norvegicus [6]) | Activity (Rattus norvegicus [7]) | Activity (Rattus norvegicus [8]) | Activity (Rattus norvegicus [9]) | Activity (Mus musculus [10]) | Activity (Mus musculus [11]) | Activity (Mus musculus [12]) | Activity (Mus musculus [13]) | Activity (Mus musculus [14]) | Activity (Mus musculus [15]) | Activity (Mus musculus [16]) | Activity (Mus musculus [17]) | Activity (Mus musculus [18]) | Activity (Mus musculus [19]) | Activity (Mus musculus [20])
Cc1ccc(C2CC(c3ccccc3)=NN2C(=O)c2ccc(-n3c(C)nc4c(Br)cc(Br)cc4c3=O)cc2)cc1 (configuration not stated) | Toxic | Non-toxic | Active | 50% | Active | 25% | 75% | 50% | 75% | Active | Non-toxic | Active | – | – | – | – | – | – | – | –
COc1ccc(C2CC(c3ccccc3)=NN2C(=O)c2ccc(-n3c(-c4ccccc4)nc4ccccc4c3=O)cc2)cc1 (configuration not stated) | – | – | Active | – | – | – | – | – | – | Active | – | – | inactive | inactive | – | – | – | – | – | –
COc1ccc(C2CC(c3ccccc3)=NN2C(=O)c2ccc(-n3c(C)nc4ccccc4c3=O)cc2)cc1 (configuration not stated) | Toxic | – | inactive | – | Active | – | – | – | – | inactive | Non-toxic | – | – | Active | – | – | – | – | – | –
O=C(c1ccc(-n2c(-c3ccccc3)nc3ccccc3c2=O)cc1)N1N=C(c2ccccc2)CC1c1ccc(O)cc1 (configuration not stated) | Non-toxic | – | inactive | – | Active | – | – | – | – | Active | Non-toxic | – | – | inactive | – | – | – | – | – | –
Cc1nc2ccccc2c(=O)n1-c1ccc(C(=O)N2N=C(c3ccccc3)CC2c2ccc(N(C)C)cc2)cc1 (configuration not stated) | Non-toxic | Non-toxic | Active | 0% | Active | 0% | 25% | 0% | 50% | Active | Non-toxic | – | – | – | Active | – | – | – | – | –
Cc1nc2c(Br)cc(Br)cc2c(=O)n1-c1ccc(C(=O)N2N=C(c3ccccc3)CC2c2cccc([N+](=O)[O-])c2)cc1 (configuration not stated) | – | – | inactive | – | – | – | – | – | – | Active | – | – | inactive | inactive | – | – | – | – | – | –
Cc1ccc(C2CC(c3ccccc3)=NN2C(=O)c2ccc(-n3c(C)nc4ccccc4c3=O)cc2)cc1 (configuration not stated) | Non-toxic | Non-toxic | Active | 50% | Active | 25% | 75% | 50% | 75% | Active | Non-toxic | – | – | – | Active | – | – | – | – | –
Cc1nc2ccccc2c(=O)n1-c1ccc(C(=O)N2N=C(c3ccccc3)CC2c2ccc(Cl)cc2)cc1 (configuration not stated) | Non-toxic | Non-toxic | – | 50% | – | 25% | 75% | 50% | 75% | Active | Toxic | – | – | – | Active | Active | Active | – | – | –
O=C(c1ccc(-n2c(-c3ccccc3)nc3ccccc3c2=O)cc1)N1N=C(c2ccccc2)CC1c1cccc([N+](=O)[O-])c1 (configuration not stated) | – | – | inactive | – | – | – | – | – | – | inactive | – | – | inactive | Active | – | – | – | – | – | –
CN(C)c1ccc(C2CC(c3ccccc3)=NN2C(=O)c2ccc(-n3c(-c4ccccc4)nc4ccccc4c3=O)cc2)cc1 (configuration not stated) | – | – | Active | – | – | – | – | – | – | inactive | – | – | inactive | inactive | – | – | – | – | – | –
Cc1nc2c(Br)cc(Br)cc2c(=O)n1-c1ccc(C(=O)N2N=C(c3ccccc3)CC2c2ccc(Cl)cc2)cc1 (configuration not stated) | Non-toxic | Non-toxic | – | 50% | – | 25% | 100% | 50% | 100% | Active | Non-toxic | – | – | – | Active | Active | Active | – | – | –
Cc1ccc(C2CC(c3ccccc3)=NN2C(=O)c2ccc(-n3c(-c4ccccc4)nc4ccccc4c3=O)cc2)cc1 (configuration not stated) | – | – | inactive | – | – | – | – | – | – | inactive | – | – | Active | inactive | – | – | – | – | – | –
Cc1nc2c(Br)cc(Br)cc2c(=O)n1-c1ccc(C(=O)N2N=C(c3ccccc3)CC2c2ccc(O)cc2)cc1 (configuration not stated) | Non-toxic | Non-toxic | – | 50% | – | 25% | 100% | 50% | 100% | Active | Toxic | – | – | Active | – | Active | Active | – | – | –
Cc1nc2ccccc2c(=O)n1-c1ccc(C(=O)N2N=C(c3ccccc3)CC2c2cccc([N+](=O)[O-])c2)cc1 (configuration not stated) | – | – | inactive | – | – | – | – | – | – | Active | – | – | inactive | inactive | – | – | – | – | – | –
Cc1nc2c(Br)cc(Br)cc2c(=O)n1-c1ccc(C(=O)N2N=C(c3ccccc3)CC2c2ccc(N(C)C)cc2)cc1 (configuration not stated) | Toxic | Non-toxic | – | 50% | – | 0% | 0% | 25% | 0% | inactive | Toxic | – | – | Active | – | Active | Active | – | – | –
CCC1(C)CC(=O)NC1=O (configuration not stated) [ETHOSUXIMIDE] | Non-toxic | – | inactive | – | – | – | – | – | – | Active | Non-toxic | – | inactive | – | Active | – | – | – | – | –
O=C1NC(=O)C(c2ccccc2)(c2ccccc2)N1 [PHENYTOIN] | – | Non-toxic | – | 100% | – | 25% | 75% | 75% | 75% | inactive | – | – | – | inactive | – | – | Active | Toxic | Toxic | Active
COc1ccc(C2CC(c3ccccc3)=NN2C(=O)c2ccc(-n3c(C)nc4c(Br)cc(Br)cc4c3=O)cc2)cc1 (configuration not stated) | Toxic | – | Active | – | Active | – | – | – | – | inactive | Toxic | – | – | Active | – | – | – | – | – | –
O=C(c1ccc(-n2c(-c3ccccc3)nc3ccccc3c2=O)cc1)N1N=C(c2ccccc2)CC1c1ccc(Cl)cc1 (configuration not stated) | Toxic | – | Active | – | Active | – | – | – | – | inactive | Non-toxic | – | – | Active | – | – | – | – | – | –
Cc1nc2ccccc2c(=O)n1-c1ccc(C(=O)N2N=C(c3ccccc3)CC2c2ccc(O)cc2)cc1 (configuration not stated) | Toxic | Non-toxic | Active | 50% | – | 25% | 100% | 50% | 100% | Active | – | – | – | Active | – | – | Active | Toxic | – | –
